Assay results published in paper PMC13334477 (RSC Medicinal Chemistry, 2026).
Read-outs that look alike come from different tables or passages of the source.

Key:
TG4T (DNA, G4) TGGGGT = test: native ESI-MS; details: 100 mM ammonium acetate (NH4+), no K+; apparent, site 1 of 2; 10 μM DNA, 20 μM ligand, 4 °C incubation
[1] = system: rLTR4-5′Cy5 (parallel RNA G4); test: Ligand-induced fluorescence quenching assay (FQA), rLTR4-5′Cy5; type: binding, HIV-1
Method: Cy5 labelled oligonucleotides were purchased lyophilized and RP-cartridge purified from Eurogentec (Kanaka Eurogentec, Seraing, Belgium). The ligand-induced fluorescence quenching assay was conducted as previously described.[47] A Stratagene Mx3005P instrument was used to carry out the assay in 96-well plates. The filters for excitation and emission were set at 635 nm and 665 nm, respectively. The gain was used at 8×. The labeled oligonucleotide was used at 10 nM, and the buffer was 10 mM lithium cacodylate (pH 7.2), 10 mM KCl, and 90 mM LiCl in a final volume of 50 μL. The oligonucleotide was heated at 90 °C for 5 min and put in ice to anneal. The ligand was added over a range of concentrations between 0 and 80 μM. A competitor, ds26, was also added at 3 or 10 μM. Each experimental condition was tested in triplicate except for the ligand alone with the buffer, which was tested in duplicate. The instrument was programmed to heat the plate for 10 min at 25 °C and measure the fluorescence after 1 min for 5 cycles. The fluorescence of each sample was normalized, and the fluorescence of the ligand alone was subtracted.
We then addressed the binding of the DBA series to the rLTR4 RNA G4. The FRET melting assay was not appropriate for investigating ligand binding to this RNAs due to its high thermal stability (Tm > 72 °C).[26] We have therefore used a ligand-induced fluorescence quenching assay (FQA) to analyse the interaction of the DBAs with either 5′ or 3′ fluorescently labelled RNAs (Fig. S8). Since planar G4-ligands generally stack on an accessible G-quartet,[94–96] we expect the DBAs to also recognize G4s by stacking interactions. To conduct a fluorescence quenching experiment, a CY5 fluorophore is attached on the 3′ or 5′ end of the RNA. […] Thus, upon interaction of the ligand with the G-quartet, the ligand induces the quenching of the fluorescence emission. This test enables determination of the apparent association constants (Ka) of each DBA with the 5′ or 3′ quartet of the G4 structure (Fig. 4, Table S3). […] A similar difference in G-tetrad binding affinities has previously been observed for TMPyP4 and PhenDC3.[47]
The fluorescently labeled oligonucleotides were dissolved at a concentration of 10 nM in 10 mM lithium cacodylate buffer (pH 7.2) with 10 mM KCl and 90 mM LiCl. […] Data are the results of at least three independent experiments in which each data point was performed in duplicate.

DK66 DNA duplex = test: Native ESI-MS, DK66; type: binding; details: 10 μM DNA, 20 μM ligand, 100 mM ammonium acetate
Method: Oligonucleotides were purchased lyophilized and RP-cartridge purified from Eurogentec (Kanaka Eurogentec, Seraing, Belgium), then buffer exchanged with ammonium acetate (5 M; Sigma-Aldrich, Saint-Quentin-Fallavier, France) using Amicon Ultra (3 K cut-off; Merck Millipore, Cork, Ireland). The concentrations of the initial stock solutions of DNA/RNA (∼1 mM) were measured by UV absorbance at 260 nm. Sample solutions were prepared by diluting the appropriate volume of oligonucleotide stock solutions to reach 10 μM of DNA/RNA and 20 μM of ligand, in 100 mM ammonium acetate. The solutions were incubated for 16 h at 4 °C before analysis by mass spectrometry. […] These parameters ensured a good signal intensity without disrupting noncovalent complexes, which was verified using d[G4T4G4]2 as a control. The presented spectra of all DNA/RNA used in this work (Fig. 5, S9 and S10) result from 8 min accumulations. The abundance of each species, M, M + 1L, M + 2L and M + 3L complexes, where M is a monomer oligonucleotide and L is a ligand, was determined from their peak area signals (A), from the sum of the −4, −5 and −6 charge states for DNA and from the sum of the −5, −6 and −7 charge states for RNA, assuming that their response factors are equal. The molar concentrations were then calculated knowing the total amount of oligonucleotide [M]tot: [drawing 1] [drawing 2] [drawing 3] [drawing 4] The concentration of the free ligand, [L]free, was determined from its total concentration [L]tot:[L]free = [L]tot − [M + 1L] − 2[M + 2L] − 3[M + 3L]Apparent consecutive dissociation constants (Kd1, Kd2 and Kd3) were calculated by using the following equations: [drawing 5] [drawing 6] [drawing 7]
We further analysed the formation of the DBA/G4 complexes by native electrospray ionization mass spectrometry (ESI-MS). We initially attempted to analyze DBA binding to the primary G4 targets from HIV-1 (HIVpro1, HIVpro2, LTR4 and rLTR4 RNA). […] These sequences span the major G4 topological classes and provide a representative assessment of DBA binding across diverse G4 architectures. We also included two DNA duplex controls (DK100 and DK66) to evaluate binding selectivity. This ESI-MS approach enables direct determination of binding stoichiometry, quantification of each species in solution, and calculation of dissociation constants (Kd) from the relative abundances of free and bound forms.[88,97]
In the ESI-MS conditions, the rLTR4 G4 (10 μM) forms a dimeric structure. […] Among the six DNA and RNA tested here (Fig. 5B, S9 and S10) only rLTR4 presented 1 : 3 G4/DBA complexes. In all cases but one, the 1 : 1 stoichiometry represents the major species in solution while for rLTR4 it is the 1 : 2 (green). […] For TG4T tetramolecular G4 or G4T4G4 bimolecular G4 only 1 : 1 and 1 : 2 complexes were detected (Fig. S9A and S10A). […] The weakest binding was obtained for the G4T4G4 antiparallel G4 and Htel sequence with Kd1s ranging from 11 μM for to 500 μM (Table 2).

SMILES	Kd1 (TG4T (DNA, G4) TGGGGT) [µM]	Ka rLTR4-5′Cy5 FQA ([1]; +10µM ds26)	Kd ([1]; +10µM ds26) [µM]	Ka rLTR4-5′Cy5 FQA ([1]; No ds26)	Kd ([1]; No ds26) [µM]	Kd (DK66 DNA duplex; read-out: Kd1 DK66) [µM]	Kd (DK66 DNA duplex; read-out: Kd2 DK66) [µM]
COc1ccc2c(ccc3c2cc2c4ccc(OC)cc4ccc2[n+]3-c2ccc([N+](=O)[O-])cc2)c1 [DBA4]	5.42	1.2±0.05 10^5 M	8.4 ± 2.1	2.3±0.1 10^5 M	4.4 ± 1	165	308
c1ccc(-[n+]2c3ccc4ccccc4c3cc3c4ccccc4ccc32)cc1 [DBA5]	21.57	1.1±0.04 10^5 M	9.5 ± 2.6	1.6±0.07 10^5 M	6.2 ± 1.4	75.4	117
COc1ccc2c(ccc3c2cc2c4ccc(OC)cc4ccc2[n+]3-c2ccccc2)c1 [DBA1]	14.69	1.1±0.06 10^5 M	8.9 ± 1.8	1.8±0.07 10^5 M	5.5 ± 1.5	4830	
COC(=O)c1ccc(-[n+]2c3ccc4cc(OC)ccc4c3cc3c4ccc(OC)cc4ccc32)cc1 [DBA2]	6.09	0.9±0.03 10^5 M	11.6 ± 3.8	1.1±0.03 10^5 M	9.3 ± 2.9	712	
COc1ccc(-[n+]2c3ccc4cc(OC)ccc4c3cc3c4ccc(OC)cc4ccc32)cc1 [DBA3]	13.62	0.9±0.07 10^5 M	11.1 ± 1.4	1.2±0.06 10^5 M	8.7 ± 1.6	1070	
